In US11701369B2, “Polymeric bile acid derivatives inhibit Hepatitis B and D virus and NTCP transport” (Huahui Health Ltd., priority 2014, dated 2023):
“Also recorded” adds a separate entry of the source. Read-outs that look alike come from different tables or passages of the source.

How the values were obtained:
[1] = test system: HBV; assay: HBV infection assay on HepG2-NTCP cells (secreted HBeAg by ELISA); format: cell-based, Hepatitis B virus; details: for inhibition of HBV infection (in words): secreted HBeAg
Procedure: (§1) HBV and HDV infection assay. HepG2NTCP Cells were cultured in PMM for 12-24 hrs before infection, and then inoculated with 200 multiplicities of genome equivalents (mge) of HBV, or 500 mge of HDV in the presence of 5% PEG8000 in PMM at 37° C. for about 24 hrs. Chemicals to be tested were added to the cells as indicated in the specific assays. The inoculum was replenished by PMM post infection. The infections were detected at day 5 post infection (dpi).
ELISA assay for the detection of HBeAg and HBsAg. ELISA kits for HBeAg and HBsAg detection were from Wantai Pharm Inc. (Beijing, China). Supernatant from infected HepG2NTCP cells was collected on 2-5 days post infection. The secreted HBeAg and HBsAg in the culture medium was measured with a commercial kit from Wantai Pharm Inc (Beijing, China) by following the manufactory's instructions.

[2] = test system: HDV; assay: HDV infection assay on HepG2-NTCP cells (intracellular delta antigen staining); format: cell-based, Hepatitis D virus
Procedure: as §1
Immunostaining assay. For HBV infection, infected cells were washed twice with PBS and fixed in 3.7% paraformaldehyde (PFA) at room temperature for 10 mins. Subsequently, cells were permeabilized with 0.5% Trition X-100/PBS for 10 mins at room temperature, blocked with 3% BSA at 37° C. for 1 hour, and followed by incubating with 5 μg/ml mouse mAb1C10 which recognizes HBcAg, and followed by staining with FITC-conjugated secondary antibody. Nucleus was stained with DAPI in blue. The stained cells were imaged with the fluorescence microscope (Nikon). For HDV infection, on 5 dpi, HDV infected cells were fixed with 100% methanol at room temperature for 10 mins, intracellular delta antigens were then stained with 5 μg/ml of FITC conjugated 4G5 and nucleus were stained with DAPI in blue. Images were collected by an Eclipse Ti Fluorescence Microscope (Nikon) and a representative picture is shown.

[3] = target: T1, NTCP (Homo sapiens, UniProt Q14973); assay: [3H] taurocholate uptake assay on HepG2-NTCP cells; format: cell-based; details: for inhibition of NTCP substrate uptake (in words): co-incubation assay, [3H] taurocholate, 10 min; for IC50: pretreatment assay, HepG2-NTCP cells pretreated 2 hrs before uptake assay, read-out: IC50 for inhibiting NTCP-mediated [3H] taurocholate uptake
T1 construct: expressed in transfected cells
T1 sequence (Q14973 1-349): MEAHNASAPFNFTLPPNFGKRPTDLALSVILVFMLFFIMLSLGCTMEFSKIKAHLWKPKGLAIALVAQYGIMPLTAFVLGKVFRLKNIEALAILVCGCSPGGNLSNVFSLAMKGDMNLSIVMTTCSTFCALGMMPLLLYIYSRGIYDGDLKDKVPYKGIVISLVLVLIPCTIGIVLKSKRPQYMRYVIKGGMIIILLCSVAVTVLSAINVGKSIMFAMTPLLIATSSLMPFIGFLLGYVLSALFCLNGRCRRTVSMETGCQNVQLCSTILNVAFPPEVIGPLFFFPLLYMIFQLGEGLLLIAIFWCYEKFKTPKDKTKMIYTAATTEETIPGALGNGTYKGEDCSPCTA
Procedure: [3H] substrate uptake assay. [3H]taurocholate uptake assay was conducted following a protocol as previously described(60). In general, HepG2-NTCP cells were cultured in PMM for 12-24 hrs, then were treated with or without indicated chemicals before uptake assay. For substrate uptake assay, cells were generally incubated with 0.5 μl (0.5 μCi) [3H]-taurocholate dissolved in Na+ Ringer's solutions for 10 mins at 37° C. with or without the presence of chemicals. Subsequently, cells were washed once by PBS and lysed by 100 μl of 1% TritonX-100 in H2O for 5 mins at room temperature. The lysate was transferred into liquid scintillation tube and mixed with 900 μl liquid scintillation cocktail (Ultima GOLD™ XR) (Perkin Elmer, USA). Liquid scintillation counting was performed on a Perkin Elmer 1450 LSC Liquid Scintillation Counter and Luminescence Counter.

[4] = test system: HepG2-NTCP cells; assay: In vitro cytotoxicity on HepG2-NTCP cell line; format: cell-based
Procedure: FIG. 6 Toxicity of 3UT(NQL-012), DiU(NQL-009) and 3TPT(NQL-018) in cell cultures. HepG2-NTCP cells were incubated with 3UT(NQL-012), DiU(NQL-009) or 3TPT(NQL-018) at indicated concentrations for 48 hrs, cell viability was evaluated and images were captured at 5 dpi.
In vitro cytotoxicity of PBADs. We also conducted experiments to determine the LD50 on HepG2-NTCP cell line of the three PBADs (3-UT (NQL-012), DIU (NQL-009), 3TPT (NQL-018)). We treated cells by different concentrations of PBADs for 48 hrs and captured the images of cells after they were further cultured for 3 days in PMM. […] No detectable cytotoxicity was observed upon treatment of DIU(NQL-009) and 3TPT(NQL-018) up to 200 μM, which is 2000-4000 folds higher than its inhibitory concentration for HBV infection.

[5] = target: T1, NTCP; assay: FITC-preS1 peptide binding assay
Procedure: FITC-preS1 peptide binding assay. NTCP expressing cells were cultured in PTH maintenance medium (PMM) for 24 hrs before conducting this assay. For Immunofluorescence microscopy, cells were incubated with 400 nM FITC-pre-S1 peptide diluted in WME or PMM at 37° C. for about 2-3 hrs. Subsequently, cells were washed once by WME, and then directly visualized with a Fluorescence Microscope.

[6] = test system: HBV; assay: In vitro stability: incubation with HBV inocula before infection, HBeAg ELISA; format: cell-based, Hepatitis B virus; details: incubated with HBV inocula for different times before infection, HBeAg at 5 dpi
Procedure: FIG. 10 The influence of the linkage groups on the in vitro stability of PBADs. TUDCA, NQL018, NQL044, and NQL055 were incubated with HBV inocula of different times before viral infection, and present in the inocula during infection period. The level of secreted HBeAg was detected by ELISA at 5 dpi.
The in vitro stability of PBADs could PBADs could be enhanced by optimization of the linkage bond. We conducted stability analysis of several PBADs with similar structure but of different linkage. […] This indicates the in vitro and in vivo stability is to a large extent determined by the feature of the linkage groups.

[7] = test system: HBV; assay: HBV infection assay on HepaRG cells (HBsAg and HBeAg ELISA); format: cell-based, Hepatitis B virus; details: HBsAg and HBeAg at 5 dpi
Procedure: FIG. 11 HepaRG cells were infected with HBV in the presence of indicated PBADs. The level of secreted HBsAg and HBeAg was detected by ELISA at 5 dpi.
The antiviral potency of PBADs is also repeatable on other HBV infection system (HepaRG) with similar inhibition profile. […] HBV infection was conducted in the presence of NQL028, NQL018, NQL029, NQL019 and NQL021, all of which were bis-ester based PBADs with different linkage length.

[8] = Hepatitis B virus, read-out: IC50 for inhibiting HBV infection, HepG2-NTCP cells, PBAD present during infection, HBeAg in medium at 5 dpi

Question: Which “inhibition of HBV infection (in words)” value ([1]; HepG2-NTCP cells) does the source give for `C[C@H](CCC(=O)NCCS(=O)(=O)O)[C@H]1CC[C@H]2[C@@H]3[C@@H](O)CC4C[C@H](OC(=O)CCCC(=O)O[C@@H]5CC[C@@]6(C)C(C5)C[C@H](O)[C@H]5[C@@H]7CC[C@H]([C@H](C)CCC(=O)NCCS(=O)(=O)O)[C@@]7(C)CC[C@@H]56)CC[C@]4(C)[C@H]3CC[C@]12C` (stereo in doubt) [NQL-018] here?
Answer: Its value is “high antiviral activity; also recorded: greatly improved potency”.

Question: What about the IC50 [1, 8] of the same compound?
Answer: The IC50 was 51 nM.

Question: What about the IC50 ([1]; read-out: IC50 for inhibiting HBV infection, HepG2-NTCP cells, PBAD present during infection, HBeAg in medium at 5 dpi) of the same compound?
Answer: Its IC50 is 51 nM.

Question: And the “inhibition of HDV infection (in words)” value [2]?
Answer: The value was “high antiviral activity; also recorded: greatly improved potency”.

Question: And the “inhibition of NTCP substrate uptake (in words)” value [3]?
Answer: Its value is “significantly higher efficiency than that of TUDCA”.

Question: What about the IC50 [3] of the same compound?
Answer: Its IC50 is 58.7 nM.

Question: And the “concentration up to which no detectable cytotoxicity was observed” value ([4]; human, 48 h)?
Answer: Its value is 200 µM.

Question: What about the “blocking of FITC-preS1 binding to NTCP (in words)” value ([5]; HepG2-NTCP cells, pretreatment versus co-incubation, 3 hrs) of the same compound?
Answer: The value was “effect of pretreatment of 3TPT(NQL-018) was not as strong as that of co-incubation”.

Question: What about the “in vitro stability (antiviral potency after long incubation with the inoculum)” value [6] of the same compound?
Answer: The value was “not stable upon long time incubation with the inoculum; also recorded: decreased activity after long time incubation”.

Question: And the “inhibition of HBV infection on HepaRG cells (in words)” value [7]?
Answer: The value was “inhibited HBV infection”.

Question: Which “inhibition of HBV infection (in words)” value ([1]; HepG2-NTCP cells) does the source give for `C[C@H](CCC(=O)O[C@H]1CC[C@@]2(C)C(C1)C[C@H](O)C1[C@H]3CC[C@H]([C@H](C)CCC(=O)NCCS(=O)(=O)O)[C@@]3(C)CC[C@H]12)[C@H]1CC[C@@H]2C3[C@@H](CC[C@@]21C)[C@@]1(C)CC[C@H](O)CC1C[C@@H]3O` (stereo partly shown) [NQL-012] here?
Answer: The value was “high antiviral activity; also recorded: greatly improved potency”.

Question: And the IC50 [1, 8]?
Answer: Its IC50 is 100 nM.

Question: What about the “inhibition of HDV infection (in words)” value [2] of the same compound?
Answer: The value was “high antiviral activity; also recorded: greatly improved potency”.

Question: What about the “inhibition of NTCP substrate uptake (in words)” value [3] of the same compound?
Answer: The value was “significantly higher efficiency than that of TUDCA”.

Question: And the IC50 [3]?
Answer: Its IC50 is 109 nM.

Question: What about the LD50 ([4]; HepG2-NTCP, 48 hrs treatment, then 3 days culture in PMM) of the same compound?
Answer: The LD50 was ~25 µM.

Question: `C[C@H](CCC(=O)O[C@H]1CC[C@@]2(C)C(C1)C[C@H](O)C1[C@H]3CC[C@H]([C@H](C)CCC(=O)O[C@H]4CC[C@@]5(C)C(C4)C[C@H](O)C4[C@H]6CC[C@H]([C@H](C)CCC(=O)NCCS(=O)(=O)O)[C@@]6(C)CC[C@H]45)[C@@]3(C)CC[C@H]12)[C@H]1CC[C@@H]2C3[C@@H](CC[C@@]21C)[C@@]1(C)CC[C@H](O)CC1C[C@@H]3O` (stereo partly shown) [NQL-016] was tested. Which “inhibition of HBV infection (in words)” value ([1]; HepG2-NTCP cells) did it give?
Answer: Its value is “not as high as the dimeric counterparts”.

Question: What about the “inhibition of HDV infection (in words)” value [2] of the same compound?
Answer: The value was “not as high as the dimeric counterparts”.

Question: What about the “effect on FITC-preS1 peptide at high concentration” value ([5]; high concentration of compound) of the same compound?
Answer: Its value is “aggregation of FITC-preS1 peptide”.
